Source: patent US10246466B2, “Diaryl macrocycles as modulators of protein kinases” (TP THERAPEUTICS, INC., priority 2014, dated 2019)

Legend:
[1] = tested on: Colorectal cell line KM12 (harboring endogenous TPM3-TRKA fusion gene); experiment: KM12 cell proliferation assay (CellTiter-Glo); format: cell-based; details: Homo sapiens, 72 hours incubation, read-out: KM 12 cell prolif. IC50
Protocol: (§1) Colorectal cell lines KM 12 (harboring endogenous TPM3-TRKA fusion gene) cells were cultured in DMEM medium, supplemented with 10% fetal bovine serum and 100 U/mL of penicillin/streptomycin. 5000 cells were seeded in 384 well white plate for 24 hours before compounds treatment. Cell proliferation was measured using CellTiter-Glo luciferase-based ATP detection assay (Promega) following the manufactures's protocol after 72 hours incubation. IC50 determinations were performed using GraphPad Prism software (GraphPad, Inc., San Diego, Calif.).
as §1, with “Alternatively: Colorectal” for “Colorectal”, “line KM12” for “lines KM 12”, “penicillin/streptomycin. […]” for “penicillin/streptomycin.”

[2] = molecular target: JAK2 (Homo sapiens (Human), UniProt O60674); experiment: KINOMEscan kinase binding assay (DiscoveRx)
Chain of JAK2 (O60674 whole entry): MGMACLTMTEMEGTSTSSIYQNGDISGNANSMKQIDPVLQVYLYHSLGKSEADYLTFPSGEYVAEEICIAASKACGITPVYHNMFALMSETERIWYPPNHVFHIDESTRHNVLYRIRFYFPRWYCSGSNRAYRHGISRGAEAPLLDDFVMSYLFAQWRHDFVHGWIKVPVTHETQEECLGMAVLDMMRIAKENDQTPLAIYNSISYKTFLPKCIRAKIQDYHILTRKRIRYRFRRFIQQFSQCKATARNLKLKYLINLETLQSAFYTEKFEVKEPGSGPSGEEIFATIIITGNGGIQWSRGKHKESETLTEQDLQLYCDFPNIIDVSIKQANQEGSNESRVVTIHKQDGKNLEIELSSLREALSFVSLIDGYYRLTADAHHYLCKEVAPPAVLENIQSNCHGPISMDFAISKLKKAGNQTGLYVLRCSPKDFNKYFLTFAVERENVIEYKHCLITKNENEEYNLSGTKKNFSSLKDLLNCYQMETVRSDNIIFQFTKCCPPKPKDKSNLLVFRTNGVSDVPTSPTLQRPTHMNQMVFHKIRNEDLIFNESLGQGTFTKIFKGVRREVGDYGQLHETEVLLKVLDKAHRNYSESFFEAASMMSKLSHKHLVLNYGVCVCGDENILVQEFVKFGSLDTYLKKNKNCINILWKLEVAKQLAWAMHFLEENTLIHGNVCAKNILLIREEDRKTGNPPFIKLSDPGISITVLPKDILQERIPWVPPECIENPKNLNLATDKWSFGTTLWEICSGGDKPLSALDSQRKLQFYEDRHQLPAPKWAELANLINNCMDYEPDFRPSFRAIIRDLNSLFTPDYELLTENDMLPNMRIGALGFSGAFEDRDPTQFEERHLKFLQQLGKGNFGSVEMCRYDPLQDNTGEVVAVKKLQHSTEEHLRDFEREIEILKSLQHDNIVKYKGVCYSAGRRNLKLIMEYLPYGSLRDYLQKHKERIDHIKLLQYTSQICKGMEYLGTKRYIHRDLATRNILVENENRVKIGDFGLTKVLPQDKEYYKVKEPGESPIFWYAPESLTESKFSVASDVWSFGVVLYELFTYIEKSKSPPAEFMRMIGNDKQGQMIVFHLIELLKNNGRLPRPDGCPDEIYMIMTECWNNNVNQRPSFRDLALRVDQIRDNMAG
Protocol: (§2) For most assays, kinase-tagged T7 phage strains were prepared in an E. coli host derived from the BL21 strain. E. coli were grown to log-phase and infected with T7 phage and incubated with shaking at 32° C. until lysis. The lysates were centrifuged and filtered to remove cell debris. The remaining kinases were produced in HEK-293 cells and subsequently tagged with DNA for qPCR detection. […] The liganded beads were blocked with excess biotin and washed with blocking buffer (SeaBlock (Pierce), 1% BSA, 0.05% Tween 20, 1 mM DTT) to remove unbound ligand and to reduce nonspecific binding. […] All reactions were performed in polystyrene 96-well plates in a final volume of 0.135 mL. […] The kinase concentration in the eluates was measured by qPCR.

[3] = molecular target: ALK (Homo sapiens (Human), UniProt Q9UM73); experiment: KINOMEscan kinase binding assay (DiscoveRx)
Protocol: as §2

[4] = tested on: T cell lymphoma Karpas-299 cell line (harboring endogenous NPM-ALK fusion gene); experiment: Karpas-299 cell proliferation assay (CellTiter-Glo); format: cell-based; details: Homo sapiens, 72 hours incubation, read-out: Karpas 299 cell proli. IC50
[5] = tested on: Essential thrombocythemia cell line SET-2 cells (harboring endogenous JAK2 point mutation); experiment: SET-2 cell proliferation assay (CellTiter-Glo); format: cell-based; details: Homo sapiens, 72 hours incubation, read-out: SET2 cell proli. IC50
[6] = molecular target: TRKA (Homo sapiens (Human), UniProt P04629); experiment: KINOMEscan kinase binding assay (DiscoveRx)
Chain of TRKA (P04629 33-796): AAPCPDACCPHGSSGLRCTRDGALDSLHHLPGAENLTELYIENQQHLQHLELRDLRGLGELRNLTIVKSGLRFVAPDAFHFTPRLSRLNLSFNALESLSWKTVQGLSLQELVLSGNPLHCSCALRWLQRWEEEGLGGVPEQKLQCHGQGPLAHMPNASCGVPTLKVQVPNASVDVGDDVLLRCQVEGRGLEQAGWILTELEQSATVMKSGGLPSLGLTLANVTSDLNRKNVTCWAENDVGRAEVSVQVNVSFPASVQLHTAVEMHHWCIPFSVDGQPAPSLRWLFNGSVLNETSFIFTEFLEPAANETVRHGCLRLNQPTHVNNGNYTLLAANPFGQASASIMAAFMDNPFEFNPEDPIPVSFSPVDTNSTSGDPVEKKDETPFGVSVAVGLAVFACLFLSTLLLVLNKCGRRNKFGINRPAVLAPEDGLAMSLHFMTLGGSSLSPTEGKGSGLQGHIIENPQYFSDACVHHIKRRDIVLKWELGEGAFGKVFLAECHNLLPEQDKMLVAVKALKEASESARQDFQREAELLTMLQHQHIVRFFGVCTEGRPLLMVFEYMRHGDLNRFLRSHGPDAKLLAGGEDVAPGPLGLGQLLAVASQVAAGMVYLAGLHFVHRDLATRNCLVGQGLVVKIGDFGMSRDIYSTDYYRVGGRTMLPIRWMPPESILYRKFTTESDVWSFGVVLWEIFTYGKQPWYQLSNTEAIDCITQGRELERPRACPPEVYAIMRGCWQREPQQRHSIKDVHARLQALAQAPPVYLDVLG
Protocol: (§3) Kinase binding assays were performed at DiscoveRx using the general KINOMEscan Kd Protocol (Fabian, M. A. et al., “A small molecule-kinase interaction map for clinical kinase inhibitors,” Nat. Biotechnol. 2005, 23(3):329-36). For most assays, kinase-tagged T7 phage strains were prepared in an E. coli host derived from the BL21 strain. E. coli were grown to log-phase and infected with T7 phage and incubated with shaking at 32° C. until lysis. The lysates were centrifuged and filtered to remove cell debris. The remaining kinases were produced in HEK-293 cells and subsequently tagged with DNA for qPCR detection. Streptavidin-coated magnetic beads were treated with biotinylated small molecule ligands for 30 minutes at room temperature to generate affinity resins for kinase assays. The liganded beads were blocked with excess biotin and washed with blocking buffer (SeaBlock (Pierce), 1% BSA, 0.05% Tween 20, 1 mM DTT) to remove unbound ligand and to reduce nonspecific binding. […] All reactions were performed in polystyrene 96-well plates in a final volume of 0.135 mL. […] The beads were then re-suspended in elution buffer (1×PBS, 0.05% Tween 20, 0.5 μM non-biotinylated affinity ligand) and incubated at room temperature with shaking for 30 minutes. The kinase concentration in the eluates was measured by qPCR.

[7] = molecular target: ROS1 (Homo sapiens (Human), UniProt P08922); experiment: KINOMEscan kinase binding assay (DiscoveRx)
Chain of ROS1 (P08922 28-2347): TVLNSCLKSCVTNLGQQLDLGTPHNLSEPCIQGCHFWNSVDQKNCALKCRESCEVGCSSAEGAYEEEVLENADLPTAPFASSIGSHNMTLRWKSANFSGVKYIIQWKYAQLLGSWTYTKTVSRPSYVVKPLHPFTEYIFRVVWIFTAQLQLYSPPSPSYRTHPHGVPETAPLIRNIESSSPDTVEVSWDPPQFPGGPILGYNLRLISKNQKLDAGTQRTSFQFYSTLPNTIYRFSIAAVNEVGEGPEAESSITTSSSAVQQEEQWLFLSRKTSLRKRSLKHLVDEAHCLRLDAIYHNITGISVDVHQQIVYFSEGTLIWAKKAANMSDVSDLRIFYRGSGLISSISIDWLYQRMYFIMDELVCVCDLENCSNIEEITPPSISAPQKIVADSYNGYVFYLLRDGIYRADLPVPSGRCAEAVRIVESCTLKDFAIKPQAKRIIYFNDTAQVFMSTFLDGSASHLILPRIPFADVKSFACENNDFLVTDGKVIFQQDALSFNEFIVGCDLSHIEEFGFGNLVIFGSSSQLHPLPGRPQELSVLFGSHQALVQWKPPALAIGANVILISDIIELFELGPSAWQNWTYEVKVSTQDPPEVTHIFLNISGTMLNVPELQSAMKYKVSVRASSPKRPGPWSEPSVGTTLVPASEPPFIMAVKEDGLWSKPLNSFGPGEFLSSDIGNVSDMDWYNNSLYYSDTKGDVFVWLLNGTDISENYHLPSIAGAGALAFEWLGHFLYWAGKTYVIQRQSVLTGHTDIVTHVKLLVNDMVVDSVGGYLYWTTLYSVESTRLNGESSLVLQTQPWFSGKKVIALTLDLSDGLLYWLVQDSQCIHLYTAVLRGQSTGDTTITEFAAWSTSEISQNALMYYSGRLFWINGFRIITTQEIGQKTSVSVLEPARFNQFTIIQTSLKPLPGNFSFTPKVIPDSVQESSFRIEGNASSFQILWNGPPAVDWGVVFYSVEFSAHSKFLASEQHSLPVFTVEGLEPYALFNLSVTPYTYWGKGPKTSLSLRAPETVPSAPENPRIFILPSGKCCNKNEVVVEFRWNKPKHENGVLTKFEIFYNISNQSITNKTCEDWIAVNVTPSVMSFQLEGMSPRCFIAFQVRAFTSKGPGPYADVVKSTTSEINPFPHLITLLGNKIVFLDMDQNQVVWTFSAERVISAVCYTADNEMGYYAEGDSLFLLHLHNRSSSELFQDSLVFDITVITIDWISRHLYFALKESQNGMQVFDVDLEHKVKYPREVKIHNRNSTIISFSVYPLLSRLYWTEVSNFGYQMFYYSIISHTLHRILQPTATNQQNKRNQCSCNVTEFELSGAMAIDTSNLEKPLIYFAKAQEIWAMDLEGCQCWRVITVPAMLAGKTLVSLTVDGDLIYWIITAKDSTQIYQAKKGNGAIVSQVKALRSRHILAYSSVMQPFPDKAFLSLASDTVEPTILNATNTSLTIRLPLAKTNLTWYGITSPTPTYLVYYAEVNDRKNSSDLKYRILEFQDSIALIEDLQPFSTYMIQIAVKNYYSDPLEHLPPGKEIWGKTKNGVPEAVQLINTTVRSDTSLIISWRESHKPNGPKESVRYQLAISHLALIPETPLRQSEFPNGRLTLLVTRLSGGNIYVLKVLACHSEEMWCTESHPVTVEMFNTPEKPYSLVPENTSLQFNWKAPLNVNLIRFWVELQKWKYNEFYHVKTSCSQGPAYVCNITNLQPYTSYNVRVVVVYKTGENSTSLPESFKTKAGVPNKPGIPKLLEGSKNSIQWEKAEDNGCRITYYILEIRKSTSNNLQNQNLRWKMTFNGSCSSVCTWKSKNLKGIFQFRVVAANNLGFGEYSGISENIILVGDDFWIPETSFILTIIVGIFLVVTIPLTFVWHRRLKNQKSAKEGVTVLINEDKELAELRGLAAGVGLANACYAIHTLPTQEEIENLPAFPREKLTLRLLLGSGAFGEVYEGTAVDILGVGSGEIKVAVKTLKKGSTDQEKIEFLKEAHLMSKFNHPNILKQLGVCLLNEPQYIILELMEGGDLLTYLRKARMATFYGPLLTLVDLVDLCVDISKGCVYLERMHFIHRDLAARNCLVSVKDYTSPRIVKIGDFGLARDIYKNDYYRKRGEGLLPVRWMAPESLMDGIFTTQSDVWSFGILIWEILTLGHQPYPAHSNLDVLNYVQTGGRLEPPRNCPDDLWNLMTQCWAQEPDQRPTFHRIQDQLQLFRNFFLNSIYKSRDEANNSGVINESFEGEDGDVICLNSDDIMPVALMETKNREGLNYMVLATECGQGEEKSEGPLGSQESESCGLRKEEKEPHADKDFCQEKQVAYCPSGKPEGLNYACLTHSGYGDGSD
Protocol: as §3

For `CN1Cc2c(ccc(F)c2Cl)OCCNC(=O)c2cnn3ccc1nc23` [Example 39, 12-chloro-11-fluoro-14-methyl-6,7,13,14-tetrahydro-1,15-ethenopyrazolo[4,3-f][1,4,8,10]benzoxatriazacyclotridecin-4(5H)-one], the IC50 [1] was 3.8 nM, the Kd [2] was 27 nM and the Kd [3] was 180 nM. It also gave an IC50 [4] of 3800 nM, an IC50 [5] of 8800 nM and a Kd [6] of 0.23 nM. For the same molecule, the Kd [7] was 4.7 nM.

For `CC1Nc2ccn3ncc(c3n2)C(=O)NCCOc2ccc(F)c(Cl)c21` (stereo not drawn) [Example 52, 12-chloro-11-fluoro-13-methyl-6,7,13,14-tetrahydro-1,15-ethenopyrazolo[4,3-f][1,4,8,10]benzoxatriazacyclotridecin-4(5H)-one], the IC50 [1] was 52 nM, the Kd [3] was 270 nM and the IC50 [4] was 7800 nM. For the same molecule, the IC50 [5] was 3600 nM, the Kd [6] was 6.5 nM and the Kd [7] was 62 nM.

Molecule `CN1Cc2cc(F)ccc2OCCCNC(=O)c2cnn3ccc1nc23` [Example 75, 12-fluoro-15-methyl-5,6,7,8,14,15-hexahydro-4H-1,16-ethenopyrazolo[4,3-g][1,5,9,11]benzoxatriazacyclotetradecin-4-one] has an IC50 [1] of 0.6 nM, a Kd [2] of 6.5 nM and an IC50 [4] of 3900 nM. For the same molecule, the IC50 [5] was 4440 nM and the Kd [6] was 0.015 nM.

In the case of `O=C1NCCOc2ccc(F)cc2C(CO)Nc2ccn3ncc1c3n2` (stereo not drawn) [Example 98, 11-fluoro-13-(hydroxymethyl)-6,7,13,14-tetrahydro-1,15-ethenopyrazolo[4,3-f][1,4,8,10]benzoxatriazacyclotridecin-4(5H)-one], the IC50 [1] is reported as 7.4 nM, the Kd [2] is reported as 0.74 nM and the Kd [3] is reported as 14 nM. It also gave an IC50 [4] of 281 nM and an IC50 [5] of 808 nM.

`O=C1NCCCOc2ccc(F)cc2CCc2ccn3ncc1c3n2` [Example 103, 12-fluoro-5,6,7,8,14,15-hexahydro-4H-1,16-ethenopyrazolo[4,3-g][1,5,9]benzoxadiazacyclotetradecin-4-one] showed an IC50 [1] of 15 nM, a Kd [2] of 1.9 nM and a Kd [3] of 28 nM. For the same molecule, the IC50 [4] was 1960 nM and the IC50 [5] was over 10000 nM.

With `O=C1NCCOc2ccc(F)cc2CNc2ccn3ncc1c3n2` [Example 50, 11-fluoro-6,7,13,14-tetrahydro-1,15-ethenopyrazolo[4,3-f][1,4,8,10]benzoxatriazacyclotridecin-4(5H)-one] the IC50 [1] was 74 nM, the Kd [2] was 0.57 nM and the IC50 [4] was 4100 nM. The IC50 [5] was 6000 nM and the Kd [6] was 0.2 nM.

`Cc1nn2ccc3nc2c1C(=O)NCCOc1ccc(F)cc1CN3C` [Example 40, 11-fluoro-3,14-dimethyl-6,7,13,14-tetrahydro-1,15-ethenopyrazolo[4,3-f][1,4,8,10]benzoxatriazacyclotridecin-4(5H)-one] showed an IC50 [1] of 204 nM, a Kd [3] of 600 nM and an IC50 [4] of over 10000 nM. The IC50 [5] was over 10000 nM and the Kd [7] was 410 nM.

`CC1Oc2ccn3ncc(c3n2)C(=O)NCCOc2ccc(F)c(Cl)c21` (stereo not drawn) [Example 11-1, 12-chloro-11-fluoro-13-methyl-6,7-dihydro-13H-1,15-ethenopyrazolo[4,3-f][1,10,4,8] benzodioxadiazacyclotridecin-4(5H)-one] showed an IC50 [1] of over 10000 nM, a Kd [3] of over 30000 nM and an IC50 [4] of over 10000 nM. The IC50 [5] was over 10000 nM, the Kd [6] was 1900 nM and the Kd [7] was 1900 nM.

In the case of `CN1Cc2ccccc2OCCNC(=O)c2cnn3ccc1nc23` [Example 49, 14-methyl-6,7,13,14-tetrahydro-1,15-ethenopyrazolo[4,3-f][1,4,8,10]benzoxatriazacyclotridecin-4(5H)-one], the IC50 [1] is reported as 6.7 nM, the Kd [2] is reported as 24 nM and the IC50 [4] is reported as 3900 nM. It also gave an IC50 [5] of 7000 nM and a Kd [6] of 0.14 nM.

Molecule `CN1Cc2cc(F)ccc2OCCNC(=O)c2cnc3ccc1nn23` [Example 42, 10-fluoro-7-methyl-7,8,15,16-tetrahydro-3,6-ethenoimidazo[5,1-f][1,4,7,8,10]benzoxatetraazacyclotridecin-17(14H)-one] has an IC50 [1] of 4 nM, an IC50 [4] of 3400 nM and an IC50 [5] of 2000 nM. The Kd [6] was 0.088 nM.

With `O=C1NCCOc2ccc(F)cc2C(c2ccccc2)Nc2ccn3ncc1c3n2` (stereo not drawn) [Example 88, 11-fluoro-13-phenyl-6,7,13,14-tetrahydro-1,15-ethenopyrazolo[4,3-f][1,4,8,10]benzoxatriazacyclotridecin-4(5H)-one] the IC50 [1] was 50.4 nM, the IC50 [4] was 3130 nM and the IC50 [5] was 1900 nM.

With `CN1Cc2cc(F)cnc2OCCNC(=O)c2cnn3ccc1nc23` [Example 61, 11-fluoro-14-methyl-6,7,13,14-tetrahydro-1,15-ethenopyrazolo[4,3-f]pyrido[3,2-1][1,4,8,10]oxatriazacyclotridecin-4(5H)-one] the IC50 [1] was 0.6 nM, the IC50 [4] was 3900 nM and the IC50 [5] was 3750 nM.

In the case of `CCN1Cc2cc(F)ccc2OCCNC(=O)c2cnn3ccc1nc23` [Example 43, 14-ethyl-11-fluoro-6,7,13,14-tetrahydro-1,15-ethenopyrazolo[4,3-f][1,4,8,10]benzoxatriazacyclotridecin-4(5H)-one], the IC50 [1] is reported as 2.6 nM, the Kd [2] is reported as 3.7 nM and the IC50 [4] is reported as 2800 nM. It also gave an IC50 [5] of 1700 nM and a Kd [6] of 0.086 nM.

`C[C@H]1CNC(=O)c2cnn3ccc(nc23)N[C@H](CO)c2cc(F)ccc2O1` [Example 111, (7S,13S)-11-fluoro-13-(hydroxymethyl)-7-methyl-6,7,13,14-tetrahydro-1,15-ethenopyrazolo[4,3-f][1,4,8,10]benzoxatriazacyclotridecin-4(5H)-one] gave an IC50 [1] of 76 nM, an IC50 [4] of 329 nM and an IC50 [5] of 2000 nM.

In the case of `CC(C)C1Nc2ccn3ncc(c3n2)C(=O)NCCOc2ccc(F)cc21` (stereo not drawn) [Example 67, 11-fluoro-13-(propan-2-yl)-6,7,13,14-tetrahydro-1,15-ethenopyrazolo[4,3-f][1,4,8,10]benzoxatriazacyclotridecin-4(5H)-one], the IC50 [1] is reported as 2.8 nM, the IC50 [4] is reported as 1200 nM and the IC50 [5] is reported as 1230 nM.

Molecule `C[C@H]1Nc2ccn3ncc(c3n2)C(=O)NCCCOc2ccc(F)cc21` [Example 76-1, (14R)-12-fluoro-14-methyl-5,6,7,8,14,15-hexahydro-4H-1,16-ethenopyrazolo[4,3-g][1,5,9,11]benzoxatriazacyclotetradecin-4-one] has an IC50 [1] of 5.8 nM, an IC50 [4] of 3800 nM and an IC50 [5] of 1000 nM.

With `C[C@H]1COc2ccc(F)cc2[C@@H](C)Nc2ccn3ncc(c3n2)C(=O)N1` [Example 109, (6S,13R)-11-fluoro-6,13-dimethyl-6,7,13,14-tetrahydro-1,15-ethenopyrazolo[4,3-f][1,4,8,10]benzoxatriazacyclotridecin-4(5H)-one] the IC50 [1] was 0.86 nM, the IC50 [4] was 225 nM and the IC50 [5] was 398 nM.

`C[C@H]1Nc2ccn3ncc(c3n2)C(=O)NC[C@H](O)COc2ccc(F)cc21` [Example 91, (7S,14R)-12-fluoro-7-hydroxy-14-methyl-5,6,7,8,14,15-hexahydro-4H-1,16-ethenopyrazolo[4,3-g][1,5,9,11]benzoxatriazacyclotetradecin-4-one] showed an IC50 [1] of 1.8 nM, an IC50 [4] of 961 nM and an IC50 [5] of 1540 nM.

`CN1Cc2cc(F)ccc2S(=O)(=O)CCNC(=O)c2cnn3ccc1nc23` [Example 107, 11-fluoro-14-methyl-6,7,13,14-tetrahydro-1,15-ethenopyrazolo[4,3-f][1,4,8,10]benzothiatriazacyclotridecin-4(5H)-one 8,8-dioxide] showed an IC50 [1] of 75.6 nM, an IC50 [4] of over 10000 nM and an IC50 [5] of 3000 nM.

For `CC(C)N1Cc2cc(F)ccc2OCCNC(=O)c2cnn3ccc1nc23` [Example 45, 11-fluoro-14-(propan-2-yl)-6,7,13,14-tetrahydro-1,15-ethenopyrazolo[4,3-f][1,4,8,10]benzoxatriazacyclotridecin-4(5H)-one], the IC50 [1] was 0.35 nM, the Kd [2] was 7.8 nM and the IC50 [4] was over 10000 nM. The IC50 [5] was 8000 nM and the Kd [6] was 0.082 nM.
